Among the data in US10829458B2 (Araxes Pharma LLC, priority 2015, dated 2020) are Binding % values, retold here.

One experiment addresses T1, KRAS G12C 1-169, his-tagged protein, GDP-loaded (Homo sapiens, UniProt P01116, G12C).
T1 construct: KRAS G12C 1-169, his-tagged protein, GDP-loaded
The experiment is described as follows: Biochemical assay: covalent modification of KRAS G12C measured by mass spectrometry (RapidFire/TOF or Q-Exactive). The conditions noted are these: covalent binding to KRAS G12C; compounds of structure (I). The protocol:
Test compounds were prepared as 10 mM stock solutions in DMSO (Fisher cat #BP-231-100). KRAS G12C 1-169, his-tagged protein, GDP-loaded was diluted to 2 μm in buffer (20 mM Hepes, 150 mM NaCl, 1 mM MgCl2). Compounds were tested for activity as follows:
Compounds were diluted to 50× final test concentration in DMSO in 96-well storage plates. Compound stock solutions were vortexed before use and observed carefully for any sign of precipitation. Dilutions were as follow: • For 100 μM final compound concentration, compounds were diluted to 5000 μM (5 μl 10 mM compound stock+5 μl DMSO and mixed well by pipetting. • For 30 μM final compound concentration, compounds were diluted to 1500 μM (3 μl 10 mM compound stock+17p DMSO) and mixed well by pipetting. • For 10 μM final compound concentration, compounds were diluted to 500 μM (2 μl 10 mM compound stock+38p DMSO) and mixed well by pipetting. 49p of the stock protein solution was added to each well of a 96-well PCR plate (Fisher cat #1423027). 1 μl of the diluted 50× compounds were added to appropriate wells in the PCR plate using 12-channel pipettor. Reactions were mixed carefully and thoroughly by pipetting up/down with a 200·1 multi-channel pipettor. The plate was sealed well with aluminum plate seal, and stored in drawer at room temperature for 30 min, 2 hour or 24 hrs. 5·1 of 2% formic acid (Fisher cat #A117) in DI H2O was then added to each well followed by mixing with a pipette. The plate was then resealed with aluminum seal and stored on dry ice until analyzed as described below.
The above described assays were analyzed by mass spectrometry according to one of the following two procedures:
The MS instrument is set to positive polarity, 2 GHz resolution, and low mass (1700) mode and allowed to equilibrate for 30 minutes. The instrument is then calibrated, switched to acquisition mode and the appropriate method loaded.
After another 30 minute equilibration time, a blank batch (i.e., buffer) is run to ensure equipment is operating properly. The samples are thawed at 37° C. for 10 minutes, briefly centrifuged, and transfer to the bench top. Wells A1 and H12 are spiked with 1 uL 500 uM internal standard peptide, and the plates centrifuged at 2000×g for 5 minutes. The method is then run and masses of each individual well recorded.
The masses (for which integration data is desired) for each well are pasted into the platemap and exported from the analysis. Masses for the internal standards are exported as well. The data at 50 ppm is extracted for the +19 charge state, and identity of well A1 is assigned using the internal standard spike and integrated. Peak data is exported as a TOF list and the above steps are repeated individually, for the +20, 21, 22, 23, 24, and 25 charge states.
The masses and peak intensities of KRAS G12C protein species were measured using a Dionex RSLCnano system (Thermo Scientific) connected to a Q Exactive Plus mass spectrometer (Thermo Scientific).
[…] of sample was each loaded onto a Aeris™ 3.6 μm WIDEPORE C4 200 Å, LC Column 50×2.1 mm column maintained at 40° C. at a flow rate of 600 μl min^−1 with […] (0.1% formic acid in acetonitrile). The liquid chromatography conditions were 20% solvent B for 1 min, 20% to 60% solvent B for 1.5 min, 60% to 90% solvent for 0.5 min, 90% solvent B for 0.2 min, 90% to 20% solvent B for 0.2 min, and then equilibrated for 1.6 min before the following sample injection. The flow rate was maintained at 600 μl min^−1 throughout the sample analysis.
The mass spectrometer was operated in profile mode at a resolution of 17500, 5 microscans, using 50 msec max injection time and an AGC target of 1e6, and a full mass range from 800-1850 m/z was recorded. The HCD trapping gas was optimized for maximum sensitivity for intact proteins. […]
With `C=CC(=O)N1CCN(c2nc(OCCc3ccccn3)nc3c(F)c(-c4c(O)cccc4F)c(Cl)cc23)CC1` (atropisomer, axis not shown) [Example I-102, (R)-1-(4-(6-chloro-8-fluoro-7-(2-fluoro-6-hydroxyphenyl)-2-(2-(pyridin-2-yl)ethoxy)quinazolin-4-yl)piperazin-1-yl) prop-2-en-1-one], the Binding % result is “+ (+ indicates binding activity up to 50%)”. On the same count and under the same terms, the same measure for `C=CC(=O)N1CCN(c2nc(OCCc3ccccn3)nc3c(F)c(-c4c(O)cccc4F)c(Cl)cc23)CC1` (atropisomer, axis not shown) [Example I-103, (S)-1-(4-(6-chloro-8-fluoro-7-(2-fluoro-6-hydroxyphenyl)-2-(2-(pyridin-2-yl)ethoxy)quinazolin-4-yl)piperazin-1-yl) prop-2-en-1-one]: “+++ (+++ indicates binding activity greater than 90%)”.

Consider `C=CC(=O)N1CCN(c2nc(N3CC(N(C)C)C3)nc3c(F)c(-c4c(O)cccc4F)c(Cl)cc23)CC1` (atropisomer, axis not shown) [Example I-116, (S)-1-(4-(6-chloro-2-(3-(dimethylamino)azetidin-1-yl)-8-fluoro-7-(2-fluoro-6-hydroxyphenyl)quinazolin-4-yl)piperazin-1-yl) prop-2-en-1-one], for which the Binding % result is given as “+++ (+++ indicates binding activity greater than 90%)”. The same measure, in the same setting: the same measure for `C=CC(=O)N1CCN(c2nc(N3CC(N(C)C)C3)nc3c(F)c(-c4c(O)cccc4F)c(Cl)cc23)CC1` (atropisomer, axis not shown) [Example I-117, (R)-1-(4-(6-chloro-2-(3-(dimethylamino)azetidin-1-yl)-8-fluoro-7-(2-fluoro-6-hydroxyphenyl)quinazolin-4-yl)piperazin-1-yl) prop-2-en-1-one]: “+ (+ indicates binding activity up to 50%)”. Still for that read-out and setting: under `C=CC(=O)N1CCN(c2nc(OCCN3CC(F)(F)C3)nc3c(F)c(-c4c(O)cccc4F)c(Cl)cc23)CC1` (atropisomer, axis not shown) [Example I-125, (S)-1-(4-(6-chloro-2-(2-(3,3-difluoro-azetidin-1-yl)ethoxy)-8-fluoro-7-(2-fluoro-6-hydroxyphenyl)quinazolin-4-yl)piperazin-1-yl) prop-2-en-1-one] stands “+++ (+++ indicates binding activity greater than 90%)”. The same measure, in the same setting: under `C=CC(=O)N1CCN(c2nc(OCCN3CC(F)(F)C3)nc3c(F)c(-c4c(O)cccc4F)c(Cl)cc23)CC1` (atropisomer, axis not shown) [Example I-126, (R)-1-(4-(6-chloro-2-(2-(3,3-difluoro-azetidin-1-yl)ethoxy)-8-fluoro-7-(2-fluoro-6-hydroxyphenyl)quinazolin-4-yl)piperazin-1-yl) prop-2-en-1-one] stands “+ (+ indicates binding activity up to 50%)”. As for `C=CC(=O)N1CCN(c2nc(OCCN3CCCC3=O)nc3c(F)c(-c4c(C)ccc5[nH]ncc45)c(Cl)cc23)CC1` [Example I-1, 1-(2-(4-(4-acryloylpiperazin-1-yl)-6-chloro-8-fluoro-7-(5-methyl-1H-indazol-4-yl)quinazolin-2-yloxy)ethyl) pyrrolidin-2-one], the Binding % entry is “+++ (+++ indicates binding activity greater than 90%)”.

With `Cc1ccc2[nH]ncc2c1-c1c(Cl)cc2c(N3CCN(C(=O)/C=C/CN(C)C)CC3)nc(OCCN3CCCC3=O)nc2c1F` [Example I-2, (E)-1-(2-(6-chloro-4-(4-(4-(dimethylamino)but-2-enoyl)piperazin-1-yl)-8-fluoro-7-(5-methyl-1H-indazol-4-yl)quinazolin-2-yloxy)ethyl) pyrrolidin-2-one], the Binding % result is listed as “+ (+ indicates binding activity up to 50%)”. The same measure, in the same setting: under `C=CC(=O)N1CCN(c2nc(NC3CCN(C)CC3)nc3c(F)c(-c4c(O)cccc4F)c(Cl)cc23)CC1` [Example I-3, 1-(4-(6-chloro-8-fluoro-7-(2-fluoro-6-hydroxyphenyl)-2-(1-methylpiperidin-4-ylamino)quinazolin-4-yl)piperazin-1-yl) prop-2-en-1-one] stands “+++ (+++ indicates binding activity greater than 90%)”; under `C=CC(=O)N1CCN(c2nc(OCC(=O)N(C)C)nc3c(F)c(-c4c(C)ccc5[nH]ncc45)c(Cl)cc23)CC1` [Example I-4, 2-(4-(4-acryloylpiperazin-1-yl)-6-chloro-8-fluoro-7-(5-methyl-1H-indazol-4-yl)quinazolin-2-yloxy)-N,N-dimethyl-acetamide], “++ (++ indicates binding activity from 50 to 90%)”. On the same count and under the same terms, under `C=CC(=O)N1CCN(c2nc(NCCO)nc3c(F)c(-c4c(C)ccc5[nH]ncc45)c(Cl)cc23)CC1` [Example I-5, 1-(4-(6-chloro-8-fluoro-2-(2-hydroxyethyl-amino)-7-(5-methyl-1H-indazol-4-yl)quinazolin-4-yl)piperazin-1-yl)prop-2-en-1-one] stands “+ (+ indicates binding activity up to 50%)”; under `C=CC(=O)N1CCN(c2nc(OCCn3ccnc3C)nc3c(F)c(-c4c(C)ccc5[nH]ncc45)c(Cl)cc23)CC1` [Example I-6, 1-(4-(6-chloro-8-fluoro-2-(2-(2-methyl-1H-imidazol-1-yl)ethoxy)-7-(5-methyl-1H-indazol-4-yl)quinazolin-4-yl)piperazin-1-yl)prop-2-en-1-one], “+++ (+++ indicates binding activity greater than 90%)”; under `C=CC(=O)N1CCN(c2nc(OCCn3ccnc3)nc3c(F)c(-c4c(C)ccc5[nH]ncc45)c(Cl)cc23)CC1` [Example I-7, 1-(4-(2-(2-(1H-imidazol-1-yl)ethoxy)-6-chloro-8-fluoro-7-(5-methyl-1H-indazol-4-yl)quinazolin-4-yl)piperazin-1-yl)prop-2-en-1-one], “++ (++ indicates binding activity from 50 to 90%)”. Same read-out and setting: under `C=CC(=O)N1CCN(c2nc(OCC(=O)N(C)C)nc3c(F)c(-c4c(O)cccc4F)c(Cl)cc23)CC1` [Example I-8, 2-(4-(4-acryloyl-piperazin-1-yl)-6-chloro-8-fluoro-7-(2-fluoro-6-hydroxyphenyl)quinazolin-2-yloxy)-N,N-dimethyl-acetamide] stands “+++ (+++ indicates binding activity greater than 90%)”. Turning to `C=CC(=O)Oc1cccc(F)c1-c1c(Cl)cc2c(N3CCN(C(=O)C=C)CC3)nc(OCC(=O)N(C)C)nc2c1F` [Example I-9, 2-(4-(4-acryloyl-piperazin-1-yl)-6-chloro-2-(2-(dimethylamino)-2-oxoethoxy)-8-fluoroquinazolin-7-yl)-3-fluorophenyl acrylate], the Binding % result is listed as “++ (++ indicates binding activity from 50 to 90%)”.

The experiment is the same for the next values; noted with them: covalent binding to KRAS G12C; compounds of structure (III).
As to `C=CC(=O)N1C[C@@H](C)N(c2ncnc3c(F)c(-c4c(O)cccc4F)c(Cl)cc23)[C@@H](C)C1` (atropisomer, axis not shown) [III-4, 1-((3S,5R)-4-((R)-6-chloro-8-fluoro-7-(2-fluoro-6-hydroxy-phenyl)quinazolin-4-yl)-3,5-dimethyl-piperazin-1-yl)prop-2-en-1-one], the Binding % entry was “+ (+ indicates binding activity up to 50%)”. On the same count and under the same terms, the same measure for `C=CC(=O)N1[C@H](C)CN(c2ncnc3c(F)c(-c4c(O)cccc4F)c(Cl)cc23)C[C@@H]1C` (atropisomer, axis not shown) [III-6]: “+++ (+++ indicates binding activity greater than 90%)”. On the same count and under the same terms, the same measure for `C=CC(=O)N1C[C@@H](C)N(c2ncnc3c(F)c(-c4c(O)cccc4F)c(Cl)cc23)[C@@H](C)C1` (atropisomer, axis not shown) [III-36]: “+++ (+++ indicates binding activity greater than 90%)”.
